In ChEMBL document CHEMBL1201862, “PubChem BioAssay data set” (2004):
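How tested: cells in 96-well plates exposed to compound for 48 hours at five concentrations. Here, GI50 denotes the concentration required for 50% inhibition of growth.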 Activity calls are given as the source filed them. No stated cut-off is given here; in the data, active = GI50 up to about 1.1 µM and inactive = higher.

What was measured:
Experiment in all cases: NCI-60 cell line screen, 48 h
A498 = test system: A498
A549 = test system: A549
BT-549 = test system: BT-549
CAKI-1 = test system: CAKI-1
DU-145 = test system: DU-145
HCT-116 = test system: HCT-116
HCT-15 = test system: HCT-15
HT-29 = test system: HT-29
IGROV-1 = test system: IGROV-1
MOLT-4 = test system: MOLT-4
NCI-H23 = test system: NCI-H23
NCI/ADR-RES = test system: NCI/ADR-RES
OVCAR-3 = test system: OVCAR-3
OVCAR-4 = test system: OVCAR-4
OVCAR-8 = test system: OVCAR-8
SF-268 = test system: SF-268
SF-295 = test system: SF-295
SK-OV-3 = test system: SK-OV-3
SN12C = test system: SN12C
HOP-92 = test system: HOP-92

Structure (SMILES) | GI50 (A498) | GI50 (A549) | GI50 (BT-549) | GI50 (CAKI-1) | GI50 (DU-145) | GI50 (HCT-116) | GI50 (HCT-15) | GI50 (HT-29) | GI50 (IGROV-1) | GI50 (MOLT-4) | GI50 (NCI-H23) | GI50 (NCI/ADR-RES) | GI50 (OVCAR-3) | GI50 (OVCAR-4) | GI50 (OVCAR-8) | GI50 (SF-268) | GI50 (SF-295) | GI50 (SK-OV-3) | GI50 (SN12C) | GI50 (HOP-92)
O=C(n1c(=O)n(-c2ccc([N+](=O)[O-])cc2)c(=O)n1C(=O)C(Cl)(Cl)Cl)C(Cl)(Cl)Cl | > 100 µM (inactive) | > 100 µM (inactive) | > 100 µM (inactive) | > 100 µM (inactive) | > 100 µM (inactive) | > 100 µM (inactive) | > 100 µM | > 100 µM (inactive) | > 100 µM (inactive) | > 10 µM (inactive) | > 100 µM (inactive) | > 100 µM (inactive) | > 100 µM (inactive) | > 100 µM (inactive) | > 100 µM (inactive) | > 100 µM (inactive) | > 100 µM (inactive) | > 100 µM (inactive) | > 100 µM (inactive) | 
CO[C@@H]1O[C@H](C(=O)c2ccccc2)[C@H]2OC(C)(C)O[C@@H]12 | > 100 µM (inactive) |  | 68.9 µM (inactive) | > 100 µM (inactive) | 54.5 µM (inactive) | 75.3 µM (inactive) | 55.2 µM |  | > 100 µM (inactive) | > 100 µM (inactive) | 94.8 µM (inactive) | 74.1 µM (inactive) | > 100 µM (inactive) | > 100 µM (inactive) | > 100 µM (inactive) | > 100 µM (inactive) | > 100 µM (inactive) | > 100 µM (inactive) | 89.7 µM (inactive) | > 100 µM (inactive)
Cc1ccc(NC(=O)CC(=O)N2N=C(N3CCCCC3)CC2c2ccccc2)cc1 (stereo not given) | > 100 µM (inactive) | > 100 µM (inactive) | > 100 µM (inactive) | > 100 µM (inactive) | > 100 µM (inactive) | > 100 µM (inactive) | > 100 µM | > 100 µM (inactive) | > 100 µM (inactive) | > 100 µM (inactive) | > 100 µM (inactive) | > 100 µM (inactive) | > 100 µM (inactive) | > 100 µM (inactive) | > 100 µM (inactive) | > 100 µM (inactive) | > 100 µM (inactive) |  | > 100 µM (inactive) | > 100 µM (inactive)
C=CCCC1CCCCNC1=S (stereo not given) | > 10 µM (inactive) | > 10 µM (inactive) | > 10 µM (inactive) | > 10 µM (inactive) | > 10 µM (inactive) | > 10 µM (inactive) | > 10 µM | > 10 µM (inactive) | > 10 µM (inactive) | > 10 µM (inactive) | > 10 µM (inactive) | > 10 µM (inactive) | > 10 µM (inactive) | > 10 µM (inactive) | > 10 µM (inactive) | > 10 µM (inactive) | > 10 µM (inactive) | > 10 µM (inactive) | > 10 µM (inactive) | 
COc1cc(C2=NNC(=O)c3ccccc3N2c2nc(-c3cccs3)nc3ccc(Br)cc23)cc(OC)c1OC | 34.8 µM (inactive) | 18.6 µM (inactive) | 32.8 µM (inactive) | 15.3 µM (inactive) | 14.7 µM (inactive) | 12.4 µM (inactive) | 4.38 µM | 7.73 µM (inactive) | 10.8 µM (inactive) |  | 7.11 µM (inactive) | 4.91 µM (inactive) | 5.4 µM (inactive) | 4.55 µM (inactive) | 4.62 µM (inactive) | 8.91 µM (inactive) | 5.06 µM (inactive) | 65.6 µM (inactive) | 18.9 µM (inactive) | 4.83 µM (inactive)
COc1ccc(C2=Nc3c(nc(OC)[nH]c3=O)NC(c3ccccc3)C2)cc1 (stereo not given) | 32.6 µM (inactive) | 34.4 µM (inactive) | 31 µM (inactive) | 52 µM (inactive) | 42.3 µM (inactive) | 28.4 µM (inactive) |  | 28.4 µM (inactive) | 30.1 µM (inactive) | 38.6 µM (inactive) | 29.6 µM (inactive) | 24.8 µM (inactive) | 33.8 µM (inactive) |  | 21.4 µM (inactive) |  | 50 µM (inactive) |  | 23.2 µM (inactive) | 32.3 µM (inactive)
